Biological target: T1, human TRPV4 (Homo sapiens, UniProt Q9HBA0)
T1 construct: expressed in transfected cells; host or cells: BHK/AC9 cells transduced with BacMam virus
Test: FLIPR assay for hTRPV4 expressed in BHK cells: inhibition of Agonist Compound-induced calcium signal
Assay type: cell-based
Conditions: hTRPV4 in BHK/AC9 cells, FLIPR calcium signal, agonist at EC80; reported as range class; read-out: IC50
Procedure: FLIPR Assay for hTRPV4 Expressed in BHK Cells:
TRPV4 channel activation results in an influx of divalent and monovalent cations including calcium. The resulting changes in intracellular calcium were monitored using a calcium specific fluorescent dye Fluo-4 (MDS Analytical Technologies). BHK/AC9 cells transduced with BacMam virus expressing the human TRPV4 gene at a MOI of 78 were plated in a 384 well poly-D lysine coated plate (15,000 cells/well in 50 μL culture medium containing DMEM/F12 with 15 mM HEPES, 10% FBS, 1% Penicillin-Streptomycin and 1% L-glutamine). Cells were incubated for 24 hours at 37° C. and 5% CO2. Culture medium was then aspirated using a Tecan plate-washer and replaced with 20 μL/well of dye loading buffer: HBSS, 500 μM Brilliant Black (MDS Analytical Technologies), and 2 μM Fluo-4 AM. Dye loaded plates were then incubated in the dark at room temperature for 1-1.5 hours.

T1 sequence (Q9HBA0 whole entry): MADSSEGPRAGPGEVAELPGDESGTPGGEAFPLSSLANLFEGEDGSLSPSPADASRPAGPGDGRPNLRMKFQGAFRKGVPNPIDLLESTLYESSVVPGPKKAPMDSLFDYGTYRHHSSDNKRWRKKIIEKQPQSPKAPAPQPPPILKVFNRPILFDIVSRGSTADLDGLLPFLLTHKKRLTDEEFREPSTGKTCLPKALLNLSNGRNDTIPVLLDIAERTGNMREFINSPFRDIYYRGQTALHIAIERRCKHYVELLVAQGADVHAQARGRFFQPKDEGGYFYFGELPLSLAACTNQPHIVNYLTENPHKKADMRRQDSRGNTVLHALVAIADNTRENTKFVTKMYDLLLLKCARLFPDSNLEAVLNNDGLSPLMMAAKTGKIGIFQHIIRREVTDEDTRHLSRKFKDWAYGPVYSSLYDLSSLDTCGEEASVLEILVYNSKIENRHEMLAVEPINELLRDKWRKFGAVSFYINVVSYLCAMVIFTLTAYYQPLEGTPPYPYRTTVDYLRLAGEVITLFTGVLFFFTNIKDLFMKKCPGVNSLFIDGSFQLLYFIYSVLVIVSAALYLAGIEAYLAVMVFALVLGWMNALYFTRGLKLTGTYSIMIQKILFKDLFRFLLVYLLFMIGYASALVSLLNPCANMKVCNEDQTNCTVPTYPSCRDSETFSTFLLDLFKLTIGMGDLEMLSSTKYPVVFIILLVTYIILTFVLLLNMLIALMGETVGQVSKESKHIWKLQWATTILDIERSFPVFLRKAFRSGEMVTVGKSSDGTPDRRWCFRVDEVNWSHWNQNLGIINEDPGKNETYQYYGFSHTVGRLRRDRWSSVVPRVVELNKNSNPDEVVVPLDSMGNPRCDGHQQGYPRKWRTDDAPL

Compared with N#Cc1ccc(O[C@H]2CN(S(=O)(=O)c3ccc(C(F)(F)F)cc3C#N)C[C@@]2(O)CO)cc1 [Example 29, 2-(((3R,4S)-4-(4-cyanophenoxy)-3-hydroxy-3-(hydroxymethyl)pyrrolidin-1-yl)sulfonyl)-5-(trifluoromethyl)benzonitrile], N#CCc1ccc(O[C@H]2CN(S(=O)(=O)c3ccc(C(F)(F)F)cc3C#N)C[C@@]2(O)CO)cc1 [Example 32, 2-(((3R,4S)-4-(4-(cyanomethyl)phenoxy)-3-hydroxy-3-(hydroxymethyl)pyrrolidin-1-yl)sulfonyl)-5-(trifluoromethyl)benzonitrile] is higher in IC50: 0.1 to 10 nM for the first, 10 to 100 nM for the second. The first is the more potent here.

First: N#Cc1cc(C(F)(F)F)ccc1S(=O)(=O)N1C[C@H](Oc2ccc(Cl)c(F)c2)[C@](O)(CO)C1 [Example 30, 2-(((3R,4S)-4-(4-chloro-3-fluorophenoxy)-3-hydroxy-3-(hydroxymethyl)pyrrolidin-1-yl)sulfonyl)-5-(trifluoromethyl)benzonitrile]
Second: N#Cc1cc(C(F)(F)F)ccc1S(=O)(=O)N1C[C@H](Oc2ccc(F)c(Cl)c2)[C@](O)(CO)C1 [Example 41, 2-(((3R,4S)-4-(3-chloro-4-fluorophenoxy)-3-hydroxy-3-(hydroxymethyl)pyrrolidin-1-yl)sulfonyl)-5-(trifluoromethyl)benzonitrile]
The IC50 of the first is lower: 0.1 to 10 nM for the first, 10 to 100 nM for the second.

Compared with N#Cc1cc(C(F)(F)F)ccc1S(=O)(=O)N1C[C@H](Oc2ccc(C(F)(F)F)c(F)c2)[C@](O)(CO)C1 [Example 31, 2-(((3R,4S)-4-(3-fluoro-4-(trifluoromethyl)phenoxy)-3-hydroxy-3-(hydroxymethyl)pyrrolidin-1-yl)sulfonyl)-5-(trifluoromethyl)benzonitrile], N#Cc1cc(C(F)(F)F)ccc1S(=O)(=O)N1C[C@H](Oc2ccc(F)c(C(F)(F)F)c2)[C@](O)(CO)C1 [Example 38, 2-(((3R,4S)-4-(4-fluoro-3-(trifluoromethyl)phenoxy)-3-hydroxy-3-(hydroxymethyl)pyrrolidin-1-yl)sulfonyl)-5-(trifluoromethyl)benzonitrile] is higher in IC50: 0.1 to 10 nM for the first, 10 to 100 nM for the second. The first is the more potent here.

N#CCc1cccc(O[C@H]2CN(S(=O)(=O)c3ccc(C(F)(F)F)cc3C#N)C[C@@]2(O)CO)c1 [Example 33, 2-(((3R,4S)-4-(3-(cyanomethyl)phenoxy)-3-hydroxy-3-(hydroxymethyl)pyrrolidin-1-yl)sulfonyl)-5-(trifluoromethyl)benzonitrile] and N#Cc1cccc(O[C@H]2CN(S(=O)(=O)c3ccc(C(F)(F)F)cc3C#N)C[C@@]2(O)CO)c1 [Example 53, 2-(((3R,4S)-4-(3-cyanophenoxy)-3-hydroxy-3-(hydroxymethyl)pyrrolidin-1-yl)sulfonyl)-5-(trifluoromethyl)benzonitrile] fall in the same range of IC50: 10 to 100 nM for the first, 10 to 100 nM for the second.

Compared with COC(=O)c1cc(C#N)ccc1O[C@H]1CN(S(=O)(=O)c2ccc(C(F)(F)F)cc2C#N)C[C@@]1(O)CO [Example 34, methyl 5-cyano-2-(((3S,4R)-1-((2-cyano-4-(trifluoromethyl)phenyl)sulfonyl)-4-hydroxy-4-(hydroxymethyl)pyrrolidin-3-yl)oxy)benzoate], COc1ccc(C#N)cc1O[C@H]1CN(S(=O)(=O)c2ccc(C(F)(F)F)cc2C#N)C[C@@]1(O)CO [Example 54, 2-(((3R,4S)-4-(5-cyano-2-methoxyphenoxy)-3-hydroxy-3-(hydroxymethyl)pyrrolidin-1-yl)sulfonyl)-5-(trifluoromethyl)benzonitrile] is higher in IC50: 0.1 to 10 nM for the first, 10 to 100 nM for the second. The first is the more potent here.

O=S(=O)(c1ccc(Cl)cc1Cl)N1C[C@H](Oc2ccc(C(F)(F)F)nc2)[C@](O)(CO)C1 [Example 35, (3R,4S)-1-((2,4-dichlorophenyl)sulfonyl)-3-(hydroxymethyl)-4-((6-(trifluoromethyl)pyridin-3-yl)oxy)pyrrolidin-3-ol] and N#Cc1cc(C(F)(F)F)ccc1S(=O)(=O)N1C[C@H](Oc2ccc(C(F)(F)F)nc2)[C@](O)(CO)C1 [Example 42, 2-(((3R,4S)-3-hydroxy-3-(hydroxymethyl)-4-((6-(trifluoromethyl)pyridin-3-yl)oxy)pyrrolidin-1-yl)sulfonyl)-5-(trifluoromethyl)benzonitrile] fall in the same range of IC50: 10 to 100 nM for the first, 10 to 100 nM for the second.

First: N#Cc1ncc(O[C@H]2CN(S(=O)(=O)c3ccc(Cl)cc3Cl)C[C@@]2(O)CO)cc1F [Example 36, 5-(((3S,4R)-1-((2,4-dichlorophenyl)sulfonyl)-4-hydroxy-4-(hydroxymethyl)pyrrolidin-3-yl)oxy)-3-fluoropicolinonitrile]
Second: N#Cc1cc(C(F)(F)F)ccc1S(=O)(=O)N1C[C@H](Oc2ccc(Cl)c(Cl)c2)[C@](O)(CO)C1 [Example 39, 2-(((3R,4S)-4-(3,4-dichlorophenoxy)-3-hydroxy-3-(hydroxymethyl)pyrrolidin-1-yl)sulfonyl)-5-(trifluoromethyl)benzonitrile]
The IC50 of the first is lower: 0.1 to 10 nM for the first, 10 to 100 nM for the second. The first is the more potent here.

N#Cc1cc(C(F)(F)F)ccc1S(=O)(=O)N1C[C@H](Oc2ccc(C(F)(F)F)cc2)[C@](O)(CO)C1 [Example 37, 2-(((3R,4S)-3-hydroxy-3-(hydroxymethyl)-4-(4-(trifluoromethyl)phenoxy)pyrrolidin-1-yl)sulfonyl)-5-(trifluoromethyl)benzonitrile] and N#Cc1cc(C(F)(F)F)ccc1S(=O)(=O)N1C[C@H](Oc2ccc(OC(F)(F)F)cc2)[C@](O)(CO)C1 [Example 50, 2-(((3R,4S)-3-hydroxy-3-(hydroxymethyl)-4-(4-(trifluoromethoxy)phenoxy)pyrrolidin-1-yl)sulfonyl)-5-(trifluoromethyl)benzonitrile] fall in the same range of IC50: 0.1 to 10 nM for the first, 0.1 to 10 nM for the second.

First: N#Cc1cc(C(F)(F)F)ccc1S(=O)(=O)N1C[C@H](Oc2ccc(OC(F)(F)F)c(F)c2)[C@](O)(CO)C1 [Example 40, 2-(((3R,4S)-4-(3-fluoro-4-(trifluoromethoxy)phenoxy)-3-hydroxy-3-(hydroxymethyl)pyrrolidin-1-yl)sulfonyl)-5-(trifluoromethyl)benzonitrile]
Second: COc1ccc(O[C@H]2CN(S(=O)(=O)c3ccc(C(F)(F)F)cc3C#N)C[C@@]2(O)CO)cc1F [Example 43, 2-(((3R,4S)-4-(3-fluoro-4-methoxyphenoxy)-3-hydroxy-3-(hydroxymethyl)pyrrolidin-1-yl)sulfonyl)-5-(trifluoromethyl)benzonitrile]
The IC50 of the first is lower: 0.1 to 10 nM for the first, 10 to 100 nM for the second.

CC(C)Oc1cc(C#N)ccc1O[C@H]1CN(S(=O)(=O)c2ccc(C(F)(F)F)cc2C#N)C[C@@]1(O)CO [Example 44, 2-(((3R,4S)-4-(4-cyano-2-isopropoxy-phenoxy)-3-hydroxy-3-(hydroxymethyl)pyrrolidin-1-yl)sulfonyl)-5-(trifluoromethyl)benzonitrile] and N#Cc1ccc(O[C@H]2CN(S(=O)(=O)c3ccc(C(F)(F)F)cc3C#N)C[C@@]2(O)CO)c(OC2CC2)c1 [Example 45, 2-(((3R,4S)-4-(4-cyano-2-cyclopropoxyphenoxy)-3-hydroxy-3-(hydroxymethyl)pyrrolidin-1-yl)sulfonyl)-5-(trifluoromethyl)benzonitrile] fall in the same range of IC50: 0.1 to 10 nM for the first, 0.1 to 10 nM for the second.

N#Cc1cc(C(F)(F)F)ccc1S(=O)(=O)N1C[C@H](Oc2ccccc2)[C@](O)(CO)C1 [Example 46, 2-(((3R,4S)-3-hydroxy-3-(hydroxymethyl)-4-phenoxypyrrolidin-1-yl)sulfonyl)-5-(trifluoromethyl)benzonitrile] and N#Cc1ccccc1S(=O)(=O)N1C[C@H](Oc2ccc(C(F)(F)F)cc2)[C@](O)(CO)C1 [Example 56, 2-(((3R,4S)-3-hydroxy-3-(hydroxymethyl)-4-(4-(trifluoromethyl)phenoxy)pyrrolidin-1-yl)sulfonyl)benzonitrile] fall in the same range of IC50: 10 to 100 nM for the first, 10 to 100 nM for the second.

N#Cc1cc(C(F)(F)F)ccc1S(=O)(=O)N1C[C@H](Oc2ccc(F)cc2)[C@](O)(CO)C1 [Example 47, 2-(((3R,4S)-4-(4-fluorophenoxy)-3-hydroxy-3-(hydroxymethyl)pyrrolidin-1-yl)sulfonyl)-5-(trifluoromethyl)benzonitrile] and Cc1ccc(O[C@H]2CN(S(=O)(=O)c3ccc(C(F)(F)F)cc3C#N)C[C@@]2(O)CO)cc1 [Example 51, 2-(((3R,4S)-3-hydroxy-3-(hydroxymethyl)-4-(p-tolyloxy)pyrrolidin-1-yl)sulfonyl)-5-(trifluoromethyl)benzonitrile] fall in the same range of IC50: 10 to 100 nM for the first, 10 to 100 nM for the second.

COc1cc(Cl)ccc1O[C@H]1CN(S(=O)(=O)c2ccc(C(F)(F)F)cc2C#N)C[C@@]1(O)CO [Example 48, 2-(((3R,4S)-4-(4-chloro-2-methoxyphenoxy)-3-hydroxy-3-(hydroxymethyl)pyrrolidin-1-yl)sulfonyl)-5-(trifluoromethyl)benzonitrile] and COc1ccc(O[C@H]2CN(S(=O)(=O)c3ccc(C(F)(F)F)cc3C#N)C[C@@]2(O)CO)cc1 [Example 52, 2-(((3R,4S)-3-hydroxy-3-(hydroxymethyl)-4-(4-methoxyphenoxy)pyrrolidin-1-yl)sulfonyl)-5-(trifluoromethyl)benzonitrile] fall in the same range of IC50: 10 to 100 nM for the first, 10 to 100 nM for the second.

N#Cc1ccc(O[C@H]2CN(S(=O)(=O)c3ccc(C(F)(F)F)cc3Cl)C[C@@]2(O)CO)cc1 [Example 49, 4-(((3S,4R)-1-((2-chloro-4-(trifluoromethyl)phenyl)sulfonyl)-4-hydroxy-4-(hydroxymethyl)pyrrolidin-3-yl)oxy)benzonitrile] and N#Cc1cc(C(F)(F)F)ccc1S(=O)(=O)N1C[C@H](Oc2cnc(C(F)(F)F)nc2)[C@](O)(CO)C1 [Example 55, 2-(((3R,4S)-3-hydroxy-3-(hydroxymethyl)-4-((2-(trifluoromethyl)pyrimidin-5-yl)oxy)pyrrolidin-1-yl)sulfonyl)-5-(trifluoromethyl)benzonitrile] fall in the same range of IC50: 10 to 100 nM for the first, 10 to 100 nM for the second.

Reference: patent US11229623B2 (GlaxoSmithKline Intellectual Property (No.2) Limited, priority 2016, dated 2022)
